Laboratory results: patent publication US7981457B2, “Taste improving substances” (Quest International B.V. & Quest International Services B.V., priority 2004, dated 2011)

Experiment: tasting of LC-MS fractions of the product of Example 1
Type: in vivo
Settings: fractions of the Example 1 product, content shown by 1H NMR
Procedure: 30 g of ethyl lactate and 10 g of GMP were thoroughly mixed in 90 g of glycerol to obtain a clear solution. The mixture was heated under stirring at 120° C. for 1 hour. A white precipitate was formed at the end of the heating period. The mixture was cooled to 70° C. and 100 g of isopropyl alcohol was added followed by stirring. Next, the mixture was filtered over a glass filter and the filter residue was washed three times with 300 g isopropyl alcohol. Thus, 12 g of an almost white powder was obtained. The main taste components of the obtained product were identified using LC-MS and tasting different fractions.

O-lactoyl GMP
taste of the fractions containing the substance: “long-lasting” and “kokumi”

CC(O)C(=O)Nc1nc2c(ncn2[C@@H]2O[C@H](COP(=O)(O)O)[C@@H](O)[C@H]2O)c(=O)[nH]1 (some centres unmarked) [N-lactoyl GMP]
taste of the fractions containing the substance: “long-lasting” and “kokumi”
